Test results reported in the NIST ThermoML archive (doi:10.1016/j.jct.2014.09.005).

Key:
[1] = xn = mol fraction of the nth substance listed; conditions: 101 kPa, Liquid; for viscosity: Capillary tube (Ostwald / Ubbelohde) method; for mass density: Vibrating tube method
[2] = refractive index (Na D-line) (dimensionless); xn = mol fraction of the nth substance listed; conditions: 101 kPa, Liquid, Standard Abbe refractometry

NC1CCCCC1 [cyclohexylamine] + CCCCCCCO
Conditions | mass density, [1] [kg/m3] | refractive index, [2] | viscosity, [1] [mPa·s]
293.15 K, x2 = 0.1018 | 863.57 | – | 2.454
293.15 K, x2 = 0.1499 | 861.92 | 1.45459 | 2.635
293.15 K, x2 = 0.1996 | 860.22 | 1.45301 | 2.838
293.15 K, x2 = 0.2982 | 856.82 | 1.44986 | 3.308
293.15 K, x2 = 0.3979 | 853.09 | 1.44669 | 3.844
293.15 K, x2 = 0.4004 | – | 1.44661 | –
293.15 K, x2 = 0.4465 | 851.2 | 1.44519 | 4.118
293.15 K, x2 = 0.4931 | 849.3 | 1.44365 | 4.381
293.15 K, x2 = 0.5432 | 847.06 | 1.44192 | 4.66
293.15 K, x2 = 0.6008 | 844.43 | 1.43985 | 4.98
293.15 K, x2 = 0.6598 | 841.57 | 1.43777 | 5.267
293.15 K, x2 = 0.6969 | – | 1.4364 | –
293.15 K, x2 = 0.7019 | 839.35 | – | 5.475
293.15 K, x2 = 0.7479 | 836.94 | 1.43438 | 5.687
293.15 K, x2 = 0.7967 | 834.16 | 1.43236 | 5.916
293.15 K, x2 = 0.8466 | 831.39 | 1.4305 | 6.158
293.15 K, x2 = 0.8935 | 828.7 | 1.42866 | 6.421
293.15 K, x2 = 0.9432 | 825.75 | 1.42665 | 6.717
298.15 K, x2 = 0.1018 | 859.27 | 1.45356 | 2.178
298.15 K, x2 = 0.1499 | 857.64 | 1.45216 | 2.338
298.15 K, x2 = 0.1996 | 856.01 | 1.45053 | 2.502
298.15 K, x2 = 0.2982 | 852.71 | 1.44763 | 2.892
298.15 K, x2 = 0.3979 | 849.06 | – | 3.334
298.15 K, x2 = 0.4004 | – | 1.44444 | –
298.15 K, x2 = 0.4465 | – | 1.44298 | –
298.15 K, x2 = 0.4565 | 847.21 | – | 3.558
298.15 K, x2 = 0.4931 | 845.34 | 1.44143 | 3.776
298.15 K, x2 = 0.5432 | 843.14 | 1.43977 | 4.007
298.15 K, x2 = 0.5946 | – | 1.43797 | –
298.15 K, x2 = 0.6008 | 840.57 | – | 4.267
298.15 K, x2 = 0.6598 | 837.76 | 1.43561 | 4.478
298.15 K, x2 = 0.7019 | 835.59 | 1.43404 | 4.682
298.15 K, x2 = 0.7479 | 833.22 | 1.43244 | 4.828
298.15 K, x2 = 0.7967 | 830.49 | 1.43053 | 5.057
298.15 K, x2 = 0.8466 | 827.78 | 1.42852 | 5.232
298.15 K, x2 = 0.8935 | 825.11 | 1.42666 | 5.43
298.15 K, x2 = 0.9432 | 822.21 | 1.42476 | 5.673
303.15 K, x2 = 0.1018 | 854.9 | 1.45099 | 1.931
303.15 K, x2 = 0.1499 | 853.33 | 1.44958 | 2.059
303.15 K, x2 = 0.1996 | 851.74 | 1.44805 | 2.204
303.15 K, x2 = 0.2982 | 848.55 | 1.4452 | 2.531
303.15 K, x2 = 0.3979 | 845 | 1.44224 | 2.895
303.15 K, x2 = 0.4465 | 843.2 | 1.44068 | 3.079
303.15 K, x2 = 0.4931 | 841.35 | 1.43923 | 3.258
303.15 K, x2 = 0.5432 | 839.17 | 1.43752 | 3.443
303.15 K, x2 = 0.5946 | – | 1.43575 | –
303.15 K, x2 = 0.6008 | 836.68 | 1.43554 | 3.658
303.15 K, x2 = 0.6598 | 833.93 | 1.43355 | 3.694
303.15 K, x2 = 0.7019 | 831.8 | 1.432 | 4.005
303.15 K, x2 = 0.7479 | 829.48 | 1.43042 | 3.974
303.15 K, x2 = 0.7967 | 826.8 | 1.42836 | 4.317
303.15 K, x2 = 0.8466 | 824.12 | 1.42657 | 4.283
303.15 K, x2 = 0.8935 | 821.5 | 1.42455 | 4.444
303.15 K, x2 = 0.9432 | 818.64 | 1.42262 | 4.626

NC1CCCCC1 [cyclohexylamine] + CCCCCCCCCCO
Conditions | mass density, [1] [kg/m3] | refractive index, [2] | viscosity, [1] [mPa·s]
293.15 K, x2 = 0.0957 | – | 1.4563 | –
293.15 K, x2 = 0.153 | 860.33 | 1.45514 | 3.133
293.15 K, x2 = 0.1955 | – | 1.45413 | –
293.15 K, x2 = 0.1956 | 858.62 | – | 3.48
293.15 K, x2 = 0.2939 | 855.14 | 1.45191 | 4.452
293.15 K, x2 = 0.3417 | 853.45 | 1.45101 | 5.014
293.15 K, x2 = 0.4077 | 851.25 | 1.44965 | 5.81
293.15 K, x2 = 0.4581 | 849.54 | 1.44855 | 6.48
293.15 K, x2 = 0.5059 | 847.91 | 1.44765 | 7.159
293.15 K, x2 = 0.5401 | 846.76 | – | 7.628
293.15 K, x2 = 0.6042 | 844.53 | 1.44562 | 8.558
293.15 K, x2 = 0.6538 | 842.75 | 1.44463 | 9.276
293.15 K, x2 = 0.7021 | 840.98 | 1.44358 | 9.963
293.15 K, x2 = 0.8084 | 837.02 | 1.44133 | 11.52
293.15 K, x2 = 0.8868 | 834.1 | 1.43957 | 12.69
298.15 K, x2 = 0.0957 | – | 1.45392 | –
298.15 K, x2 = 0.153 | 856.19 | 1.45279 | 2.749
298.15 K, x2 = 0.1955 | – | 1.45174 | –
298.15 K, x2 = 0.1956 | 854.54 | – | 3.049
298.15 K, x2 = 0.2939 | 851.2 | 1.44964 | 3.853
298.15 K, x2 = 0.3417 | 849.56 | 1.44874 | 4.308
298.15 K, x2 = 0.4077 | 847.42 | 1.44743 | 4.923
298.15 K, x2 = 0.4581 | 845.76 | 1.44648 | 5.456
298.15 K, x2 = 0.5059 | 844.17 | 1.44554 | 5.991
298.15 K, x2 = 0.5401 | 843.04 | 1.44481 | 6.38
298.15 K, x2 = 0.6042 | 840.86 | 1.44365 | 7.124
298.15 K, x2 = 0.6538 | 839.13 | 1.44254 | 7.689
298.15 K, x2 = 0.7021 | 837.39 | 1.44141 | 8.24
298.15 K, x2 = 0.8084 | 833.53 | 1.43935 | 9.512
298.15 K, x2 = 0.8868 | 830.66 | 1.43762 | 10.41
303.15 K, x2 = 0.0957 | – | 1.4514 | –
303.15 K, x2 = 0.153 | 851.99 | 1.45031 | 2.406
303.15 K, x2 = 0.1955 | – | 1.44938 | –
303.15 K, x2 = 0.1956 | 850.41 | – | 2.663
303.15 K, x2 = 0.2939 | 847.19 | 1.44747 | 3.347
303.15 K, x2 = 0.3417 | 845.61 | 1.44642 | 3.711
303.15 K, x2 = 0.4077 | 843.53 | 1.44514 | 4.216
303.15 K, x2 = 0.4581 | 841.91 | 1.44424 | 4.654
303.15 K, x2 = 0.5059 | 840.37 | 1.44335 | 5.075
303.15 K, x2 = 0.5401 | 839.27 | 1.44256 | 5.393
303.15 K, x2 = 0.6042 | 837.14 | 1.44137 | 5.985
303.15 K, x2 = 0.6538 | 835.46 | 1.44039 | 6.457
303.15 K, x2 = 0.7021 | 833.76 | 1.43943 | 6.893
303.15 K, x2 = 0.8084 | 829.98 | 1.43724 | 7.904
303.15 K, x2 = 0.8868 | 827.17 | 1.43565 | 8.649
